A short description of the data set: Single dose bioavailability study on fasted subjects. Particulars: human, in vivo, Galenical formulation Example 4 (composition 2.3). The protocol: A single dose bioavailability study is conducted on N fasted subjects using the composition of this Example (N=7, dose of compound I-A 433.3 mg corresponding to 400 mg free base of formula I-B), and the same amount in powder form filled into hard capsules, (N=6). BAL8557, a water-soluble prodrug of the compound of formula I-B according to EP-A-1 280 795, is used as a standard (capsule comprising BAL 8557 in powder form in an amount corresponding to 400 mg free base of formula I-B; N=3).

Where [1] appears, read: single oral dose 433.3 mg I-A (400 mg free base I-B), N=7.

SMILES strings stand for the structures.

As to `C[C@@H](c1nc(-c2ccc(C#N)cc2)cs1)[C@](O)(Cn1cncn1)c1cc(F)ccc1F.Cl` [Compound I-A], the bioavailability (usually the share of a dose that reaches the circulation, judged against a reference dose that is usually intravenous) (433.3 mg, single oral dose equal to 400 mg free base I-B, BAL 8557 as standard, read-out: Frel (relative bioavailability)) is 90%. Further, under setting [1], the concentration peaked (Cmax) at 4410 ng/mL; the time of peak concentration (Tmax) (usually the time from dosing to the highest level) came to 1.5 h; the half-life (in general, the time needed for the level to fall by half in the phase considered) is 88 h. Moreover, the AUC (single oral dose 433.3 mg I-A (400 mg free base I-B), N=7, read-out: AUCinfinite) worked out at 193 µg·h/mL.
